In ChEMBL document CHEMBL4699440, “Comprehensive review on the anti-bacterial activity of 1,2,3-triazole hybrids” (Eur J Med Chem, 2019):

How the values were obtained:
[1] = test system: Staphylococcus aureus; assay: Antibacterial activity against Staphylococcus aureus MTCC 7443 incubated for 24 hrs by two-fold serial dilution method; type: functional
[2] = test system: Aspergillus brasiliensis; assay: Antifungal activity against Aspergillus brasiliensis MTCC 1344 incubated for 7 days by microdilution method; type: functional; conditions: MTCC 1344, 168 h, time 7 day
[3] = test system: Pseudomonas aeruginosa; assay: Antibacterial activity against Pseudomonas aeruginosa MTCC 424 incubated for 24 hrs by two-fold serial dilution method; type: functional
[4] = test system: Candida albicans; assay: Antifungal activity against Candida albicans MTCC 227 incubated for 2 days by microdilution method; type: functional; conditions: MTCC 227, 48 h, time 2 day
[5] = test system: Bacillus subtilis; assay: Antibacterial activity against Bacillus subtilis MTCC 441 incubated for 24 hrs by two-fold serial dilution method; type: functional
[6] = test system: Pseudomonas fluorescens; assay: Antibacterial activity against Pseudomonas fluorescence NCIM-2059 incubated for 8 hrs; type: functional
[7] = test system: Escherichia coli; assay: Antibacterial activity against Escherichia coli NCIM-2576 incubated for 8 hrs; type: functional
[8] = test system: Bacillus subtilis; assay: Antibacterial activity against Bacillus subtilis NCIM-2162 incubated for 12 hrs; type: functional
[9] = test system: Staphylococcus aureus; assay: Antibacterial activity against Staphylococcus aureus NCIM-2602 incubated for 12 hrs; type: functional
[10] = test system: Klebsiella aerogenes; assay: Antibacterial activity against Enterobacter aerogenes ATCC 13048; type: functional
[11] = test system: Enterococcus faecium; assay: Antibacterial activity against Enterococcus faecium ATCC 700221; type: functional
[12] = test system: Escherichia coli; assay: Antibacterial activity against Escherichia coli ATCC 25922 after overnight incubation by CLSI M7-A9 based method; type: functional
[13] = test system: Enterobacter cloacae; assay: Antibacterial activity against Enterobacter cloacae ATCC 43560; type: functional
[14] = test system: Klebsiella pneumoniae; assay: Antibacterial activity against Klebsiella pneumoniae ATCC 700603; type: functional
[15] = test system: Stenotrophomonas maltophilia; assay: Antibacterial activity against Stenotrophomonas maltophilia ATCC 13636; type: functional
[16] = test system: Serratia marcescens; assay: Antibacterial activity against Serratia marcescens ATCC 21074; type: functional
[17] = test system: Klebsiella pneumoniae; assay: Antibacterial activity against Klebsiella pneumoniae 7; type: functional
[18] = test system: Enterococcus faecalis; assay: Antibacterial activity against Enterococcus faecalis ATCC 51299; type: functional
[19] = test system: Escherichia coli; assay: Antibacterial activity against Escherichia coli 14-11; type: functional
[20] = test system: Staphylococcus aureus; assay: Antibacterial activity against methicillin-sensitive Staphylococcus aureus ATCC 29213; type: functional
[21] = test system: Pseudomonas aeruginosa; assay: Antibacterial activity against Pseudomonas aeruginosa ATCC 27853; type: functional
[22] = test system: Staphylococcus epidermidis; assay: Antibacterial activity against methicillin-sensitive Staphylococcus epidermidis ATCC 12228; type: functional
[23] = test system: Proteus mirabilis; assay: Antibacterial activity against Proteus mirabilis 13-1; type: functional
[24] = test system: Providencia rettgeri; assay: Antibacterial activity against Providencia rettgeri ATCC 31052; type: functional
[25] = test system: Enterococcus faecium; assay: Antibacterial activity against Enterococcus faecium 13-7; type: functional
[26] = test system: Morganella morganii; assay: Antibacterial activity against Morganella morganii ATCC 25830; type: functional
[27] = test system: Citrobacter freundii; assay: Antibacterial activity against Citrobacter freundii ATCC 43864; type: functional
[28] = test system: Acinetobacter calcoaceticus; assay: Antibacterial activity against Acinetobacter calcoaceticus ATCC 19606; type: functional
[29] = test system: Staphylococcus epidermidis; assay: Antibacterial activity against methicillin-resistant Staphylococcus epidermidis 13-3; type: functional
[30] = test system: Proteus vulgaris; assay: Antibacterial activity against Proteus vulgaris ATCC 29905; type: functional
[31] = test system: Enterococcus faecalis; assay: Antibacterial activity against Enterococcus faecalis ATCC 29212 after overnight incubation by CLSI M7-A9 based method; type: functional
[32] = test system: Staphylococcus aureus; assay: Antibacterial activity against methicillin-resistant Staphylococcus aureus ATCC 33591; type: functional
[33] = test system: Bacillus spizizenii; assay: Antibacterial activity against Bacillus subtilis ATCC 6633 assessed as inhibition zone; type: functional
[34] = test system: Pseudomonas aeruginosa; assay: Antibacterial activity against Pseudomonas aeruginosa ATCC 27853 assessed as inhibition zone; type: functional
[35] = test system: Staphylococcus aureus; assay: Antibacterial activity against Staphylococcus aureus ATCC 25923 assessed as inhibition zone; type: functional
[36] = test system: Escherichia coli; assay: Antibacterial activity against Escherichia coli ATCC 25922 assessed as inhibition zone; type: functional
[37] = test system: Proteus vulgaris; assay: Antibacterial activity against Proteus vulgaris ATCC 4636 assessed as inhibition zone; type: functional
[38] = test system: Escherichia coli; assay: Antibacterial activity against Escherichia coli RCMB-010052 assessed as diameter of inhibition zone at 5 mg/ml by diffusion technique; type: functional; conditions: read-out: DIZ
[39] = test system: Bacillus cereus; assay: Antibacterial activity against Bacillus cereus RCMB-010067 assessed as diameter of inhibition zone at 5 mg/ml by diffusion technique; type: functional; conditions: read-out: DIZ
[40] = test system: Candida albicans; assay: Antifungal activity against Candida albicans RCMB-05036 assessed as diameter of inhibition zone at 5 mg/ml by diffusion technique; type: functional; conditions: read-out: DIZ
[41] = test system: Geotrichum candidum; assay: Antifungal activity against Geotrichum candidum RCMB-05097 assessed as diameter of inhibition zone at 5 mg/ml by diffusion technique; type: functional; conditions: read-out: DIZ
[42] = test system: Syncephalastrum racemosum; assay: Antifungal activity against Syncephalastrum racemosum RCMB-05922 assessed as diameter of inhibition zone at 5 mg/ml by diffusion technique; type: functional; conditions: read-out: DIZ
[43] = test system: Aspergillus fumigatus; assay: Antifungal activity against Aspergillus fumigatus RCMB-02568 assessed as diameter of inhibition zone at 5 mg/ml by diffusion technique; type: functional; conditions: read-out: DIZ
[44] = test system: Staphylococcus aureus; assay: Antibacterial activity against Staphylococcus aureus RCMB-010010 assessed as diameter of inhibition zone at 5 mg/ml by diffusion technique; type: functional; conditions: read-out: DIZ
[45] = test system: Pseudomonas aeruginosa; assay: Antibacterial activity against Pseudomonas aeruginosa RCMB-010043 assessed as diameter of inhibition zone at 5 mg/ml by diffusion technique; type: functional; conditions: read-out: DIZ
[46] = test system: Salmonella typhimurium; assay: Antibacterial activity against Salmonella typhimurium ATCC 14028 incubated for 24 hrs by broth dilution method; type: functional, Salmonella enterica subsp. enterica serovar Typhimurium; conditions: Salmonella enterica
[47] = test system: Escherichia coli; assay: Antibacterial activity against Escherichia coli ATCC 25922 incubated for 24 hrs by broth dilution method; type: functional
[48] = test system: Micrococcus luteus; assay: Antibacterial activity against Micrococcus luteus IFC 12708 incubated for 24 hrs by broth dilution method; type: functional
[49] = test system: Proteus vulgaris; assay: Antibacterial activity against Proteus vulgaris ATCC 3851 incubated for 24 hrs by broth dilution method; type: functional
[50] = test system: Staphylococcus aureus; assay: Antibacterial activity against Staphylococcus aureus ATCC 6538p incubated for 24 hrs by broth dilution method; type: functional
[51] = test system: Bacillus spizizenii; assay: Antibacterial activity against Bacillus subtilis ATCC 6633 incubated for 24 hrs by broth dilution method; type: functional
[52] = test system: HepG2; assay: Anticancer activity against human HepG2 cells by MTT assay; type: functional, cell-based
[53] = test system: Klebsiella pneumoniae; assay: Antibacterial activity against Klebsiella pneumoniae MTCC 618 incubated for 24 hrs by microdilution method; type: functional
[54] = test system: Bacillus subtilis; assay: Antibacterial activity against Bacillus subtilis MTCC 441 incubated for 24 hrs by microdilution method; type: functional
[55] = test system: Staphylococcus aureus; assay: Antibacterial activity against Staphylococcus aureus MTCC 96 incubated for 24 hrs by microdilution method; type: functional
[56] = test system: Escherichia coli; assay: Antibacterial activity against Escherichia coli MTCC 443 incubated for 24 hrs by microdilution method; type: functional
[57] = test system: Pseudomonas aeruginosa; assay: Antibacterial activity against Pseudomonas aeruginosa MTCC 741 incubated for 24 hrs by microdilution method; type: functional
[58] = test system: Staphylococcus epidermidis; assay: Antibacterial activity against Staphylococcus epidermidis incubated for 24 hrs by microdilution method; type: functional

COc1ccc(NC(=O)Cn2cc(COc3ccc(OCc4cn(CC(=O)Nc5ccc(OC)cc5)nn4)cc3)nn2)cc1
0.167 µM: MIC [1] | MIC [2] | MIC [3] | MIC [4] | MIC [5]

Fc1ccc(-c2cnnn2Cc2csc(-c3ccc(Cl)cc3)n2)cc1
4.5 µg/mL: MIC90 [6] | MIC90 [7] | MIC90 [8] | MIC90 [9]

C[C@H]1COc2c(N3CCN(C)CC3)c(F)cc3c(=O)c(C(=O)O)cn1c23.C[C@H]1COc2c(N3CCN(C)CC3)c(F)cc3c(=O)c(C(=O)O)cn1c23.O [LEVOFLOXACIN]
≤ 0.03 µg/mL: MIC [10] | MIC [11] | MIC [12] | MIC [13] | MIC [14] | MIC [15] | MIC [16] | MIC [17] | MIC [18] | MIC [19] | MIC [20] | MIC [21] | MIC [22] | MIC [23] | MIC [24] | MIC [25] | MIC [26] | MIC [27] | MIC [28] | MIC [29] | MIC [30] | MIC [31] | MIC [32]

CC(O)C(=O)O.CCOc1ccc2nc3cc(N)ccc3c(N)c2c1
12 mm: inhibition zone (IZ) [33] | inhibition zone (IZ) [34] | inhibition zone (IZ) [35] | inhibition zone (IZ) [36] | inhibition zone (IZ) [37]

Cc1ccc(-n2nc(N)c(C(=O)NCCNC(=O)c3nn(-c4ccc(C)cc4)nc3N)n2)cc1
8.3 mm: zone of inhibition at 5000 µg/mL [38] | zone of inhibition at 5000 µg/mL [39] | zone of inhibition at 5000 µg/mL [40] | zone of inhibition at 5000 µg/mL [41] | zone of inhibition at 5000 µg/mL [42] | zone of inhibition at 5000 µg/mL [43] | zone of inhibition at 5000 µg/mL [44] | zone of inhibition at 5000 µg/mL [45]

CC1(C)O[C@H]2O[C@@H]([C@H]3SC(Cc4nc5ccccc5[nH]4)C(=O)N3c3ccc(Cl)cc3)[C@@H](OCc3cn(-c4ccc(Cl)cc4)nn3)[C@H]2O1 (some centres undefined)
1.56 µg/mL: MIC [46] | MIC [47] | MIC [48] | MIC [49] | MIC [50] | MIC [51]

CC[C@]1(O)C[C@@H]2CN(CCc3c([nH]c4ccccc34)[C@@](C(=O)OC)(c3cc4c(cc3OC)N(C)[C@H]3[C@@](O)(C(=O)OC)[C@H](OC(C)=O)[C@]5(CC)C=CCN6CC[C@]43[C@@H]65)C2)C1 [VINBLASTINE]
4.6 µg/mL: IC50 [52]

C[C@@H]1[C@H](O)[C@@H](C)/C=C/C=C/C=C/C=C/C=C/C=C/C=C/[C@H](O[C@@H]2O[C@H](C)[C@@H](O)[C@H](N)[C@@H]2O)C[C@@H]2O[C@](O)(C[C@@H](O)C[C@@H](O)[C@H](O)CC[C@@H](O)C[C@@H](O)CC(=O)O[C@H]1C)C[C@H](O)[C@H]2C(=O)O [AMPHOTERICIN B]
19.7 mm: zone of inhibition at 5000 µg/mL [40] | zone of inhibition at 5000 µg/mL [41] | zone of inhibition at 5000 µg/mL [42] | zone of inhibition at 5000 µg/mL [43]

O=C(Cn1cc(COc2ccc(OCc3cn(CC(=O)Nc4ccccc4)nn3)cc2)nn1)Nc1ccccc1
0.0928 µM: MIC [1] | MIC [2] | MIC [3] | MIC [4] | MIC [5]

O=C(c1cn(Cc2cn(-c3ccc(C(F)(F)F)cc3)nn2)c2cc(N3CCOCC3)c(F)cc2c1=O)N1CCOCC1
18.8 µg/mL: MIC [53] | MIC [54] | MIC [55] | MIC [56] | MIC [57] | MIC [58]

COc1c(N2CCN(CCn3ccnn3)CC2)c(F)cc2c(=O)c(C(=O)O)cn(C3CC3)c12
≥ 0.5 µg/mL: MIC [10] | MIC [11] | MIC [12] | MIC [13] | MIC [14] | MIC [15] | MIC [16] | MIC [17] | MIC [18] | MIC [19] | MIC [20] | MIC [21] | MIC [22] | MIC [23] | MIC [24] | MIC [25] | MIC [26] | MIC [27] | MIC [28] | MIC [29] | MIC [30] | MIC [31] | MIC [32]

COc1ccc(-n2cc(Cn3cc(C(=O)N4CCCCC4)c(=O)c4cc(F)c(N5CCCCC5)cc43)nn2)cc1
18.8 µg/mL: MIC [53] | MIC [54] | MIC [55] | MIC [56] | MIC [57] | MIC [58]

COC(=O)c1ccc(-n2nc(N)c(C(=O)NCCNC(=O)c3nn(-c4ccc(C(=O)OC)cc4)nc3N)n2)cc1
11.6 µg/mL: IC50 [52]
20.4 mm: zone of inhibition at 5000 µg/mL [38] | zone of inhibition at 5000 µg/mL [39] | zone of inhibition at 5000 µg/mL [40] | zone of inhibition at 5000 µg/mL [41] | zone of inhibition at 5000 µg/mL [42] | zone of inhibition at 5000 µg/mL [43] | zone of inhibition at 5000 µg/mL [44] | zone of inhibition at 5000 µg/mL [45]

O=C(OCc1cn(Cc2cccc(F)c2)nn1)c1cccc2c(=O)c3ccccc3[nH]c12
9.5 mm: inhibition zone (IZ) [33] | inhibition zone (IZ) [34] | inhibition zone (IZ) [35] | inhibition zone (IZ) [36] | inhibition zone (IZ) [37]

COc1ccc(-c2cnnn2Cc2csc(-c3ccc(Br)cc3)n2)cc1
4.5 µg/mL: MIC90 [6] | MIC90 [7] | MIC90 [8] | MIC90 [9]
